Measured values published in the Kinase Knowledgebase extract (Sharma et al. 2016).

Assays:
[1] = biological target: EGFR (Human), P00533 [T790M/L858R]
[2] = biological target: EGFR (human), P00533 [L858R]
[3] = biological target: EGFR (human) (UniProt P00533)
[4] = biological target: EGFR (Human), P00533 [T790M/L858R]; conditions: baf3
[5] = biological target: EGFR (Human), P00533 [Assessment of EGFR-Del T790M Dependent Cell Proliferation in BaF3 Cells]
EGFR (Human), P00533 [Assessment of EGFR-Del T790M Dependent Cell Proliferation in BaF3 Cells], sequence (P00533 whole entry, looked up, stated change not applied): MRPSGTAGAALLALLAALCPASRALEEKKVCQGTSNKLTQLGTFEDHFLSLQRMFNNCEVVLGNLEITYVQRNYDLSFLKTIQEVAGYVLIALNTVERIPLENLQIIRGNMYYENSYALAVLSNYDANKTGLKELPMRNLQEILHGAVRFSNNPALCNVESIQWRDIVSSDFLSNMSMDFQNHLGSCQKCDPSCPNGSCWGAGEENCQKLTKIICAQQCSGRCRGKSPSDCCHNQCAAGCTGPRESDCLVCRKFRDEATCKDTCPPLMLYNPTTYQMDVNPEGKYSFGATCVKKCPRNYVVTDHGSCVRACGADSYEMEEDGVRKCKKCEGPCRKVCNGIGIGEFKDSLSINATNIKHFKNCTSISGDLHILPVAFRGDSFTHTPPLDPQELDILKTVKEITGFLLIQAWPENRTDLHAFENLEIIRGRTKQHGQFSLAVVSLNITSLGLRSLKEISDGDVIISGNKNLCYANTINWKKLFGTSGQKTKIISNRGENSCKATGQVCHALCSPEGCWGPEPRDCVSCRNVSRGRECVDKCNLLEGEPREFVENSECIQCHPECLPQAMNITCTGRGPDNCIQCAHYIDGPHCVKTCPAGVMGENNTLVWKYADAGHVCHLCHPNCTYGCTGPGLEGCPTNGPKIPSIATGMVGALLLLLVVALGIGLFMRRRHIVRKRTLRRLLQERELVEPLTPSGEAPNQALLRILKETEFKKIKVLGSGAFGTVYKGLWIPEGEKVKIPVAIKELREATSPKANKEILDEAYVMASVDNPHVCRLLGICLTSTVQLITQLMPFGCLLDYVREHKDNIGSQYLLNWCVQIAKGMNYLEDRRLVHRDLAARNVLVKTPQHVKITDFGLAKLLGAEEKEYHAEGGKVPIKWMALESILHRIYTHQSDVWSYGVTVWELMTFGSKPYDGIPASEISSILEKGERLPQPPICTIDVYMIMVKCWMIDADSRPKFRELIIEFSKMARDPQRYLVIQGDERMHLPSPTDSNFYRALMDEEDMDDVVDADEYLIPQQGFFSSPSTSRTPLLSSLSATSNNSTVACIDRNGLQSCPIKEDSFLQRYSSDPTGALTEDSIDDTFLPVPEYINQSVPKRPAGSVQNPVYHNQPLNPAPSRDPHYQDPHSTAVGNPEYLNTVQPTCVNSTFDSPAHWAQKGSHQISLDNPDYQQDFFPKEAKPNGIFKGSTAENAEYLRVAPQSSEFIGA

EGFR (Human), P00533 [T790M/L858R], sequence (P00533 whole entry T790M/L858R, looked up): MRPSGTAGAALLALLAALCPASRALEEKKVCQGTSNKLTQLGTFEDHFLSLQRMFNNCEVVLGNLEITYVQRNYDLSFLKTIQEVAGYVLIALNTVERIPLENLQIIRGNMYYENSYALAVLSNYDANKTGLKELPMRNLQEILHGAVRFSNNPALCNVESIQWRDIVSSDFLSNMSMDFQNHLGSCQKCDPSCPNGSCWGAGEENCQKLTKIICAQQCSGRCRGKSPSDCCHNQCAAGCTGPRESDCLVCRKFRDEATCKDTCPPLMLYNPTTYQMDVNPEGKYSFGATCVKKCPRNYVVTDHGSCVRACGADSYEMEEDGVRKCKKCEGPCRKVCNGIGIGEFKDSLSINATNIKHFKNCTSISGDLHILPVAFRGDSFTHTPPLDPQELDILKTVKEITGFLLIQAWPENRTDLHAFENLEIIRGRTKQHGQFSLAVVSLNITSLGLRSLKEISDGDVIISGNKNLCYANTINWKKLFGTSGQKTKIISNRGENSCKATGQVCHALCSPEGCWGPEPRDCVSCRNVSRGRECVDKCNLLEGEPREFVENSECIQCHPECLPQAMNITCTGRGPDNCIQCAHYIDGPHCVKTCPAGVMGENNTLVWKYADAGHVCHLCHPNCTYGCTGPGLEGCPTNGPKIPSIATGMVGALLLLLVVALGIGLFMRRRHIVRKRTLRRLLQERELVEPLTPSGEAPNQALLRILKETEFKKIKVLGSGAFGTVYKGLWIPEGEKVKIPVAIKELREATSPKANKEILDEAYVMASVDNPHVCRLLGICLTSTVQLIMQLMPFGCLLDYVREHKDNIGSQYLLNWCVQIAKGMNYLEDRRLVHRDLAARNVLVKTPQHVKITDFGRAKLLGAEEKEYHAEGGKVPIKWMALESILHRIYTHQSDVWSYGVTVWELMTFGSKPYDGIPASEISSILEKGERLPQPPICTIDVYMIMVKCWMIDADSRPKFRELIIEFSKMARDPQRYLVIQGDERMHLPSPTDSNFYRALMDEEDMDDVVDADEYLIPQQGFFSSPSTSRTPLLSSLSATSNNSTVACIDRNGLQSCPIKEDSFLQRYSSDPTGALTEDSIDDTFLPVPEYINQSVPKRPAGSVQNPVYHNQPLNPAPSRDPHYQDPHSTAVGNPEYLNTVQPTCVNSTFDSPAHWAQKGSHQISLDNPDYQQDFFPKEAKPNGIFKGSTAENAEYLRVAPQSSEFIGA
EGFR (human), sequence (P00533 whole entry, looked up): as the sequence (P00533 whole entry, looked up, stated change not applied) above
EGFR (human), P00533 [L858R], sequence (P00533 whole entry L858R, looked up): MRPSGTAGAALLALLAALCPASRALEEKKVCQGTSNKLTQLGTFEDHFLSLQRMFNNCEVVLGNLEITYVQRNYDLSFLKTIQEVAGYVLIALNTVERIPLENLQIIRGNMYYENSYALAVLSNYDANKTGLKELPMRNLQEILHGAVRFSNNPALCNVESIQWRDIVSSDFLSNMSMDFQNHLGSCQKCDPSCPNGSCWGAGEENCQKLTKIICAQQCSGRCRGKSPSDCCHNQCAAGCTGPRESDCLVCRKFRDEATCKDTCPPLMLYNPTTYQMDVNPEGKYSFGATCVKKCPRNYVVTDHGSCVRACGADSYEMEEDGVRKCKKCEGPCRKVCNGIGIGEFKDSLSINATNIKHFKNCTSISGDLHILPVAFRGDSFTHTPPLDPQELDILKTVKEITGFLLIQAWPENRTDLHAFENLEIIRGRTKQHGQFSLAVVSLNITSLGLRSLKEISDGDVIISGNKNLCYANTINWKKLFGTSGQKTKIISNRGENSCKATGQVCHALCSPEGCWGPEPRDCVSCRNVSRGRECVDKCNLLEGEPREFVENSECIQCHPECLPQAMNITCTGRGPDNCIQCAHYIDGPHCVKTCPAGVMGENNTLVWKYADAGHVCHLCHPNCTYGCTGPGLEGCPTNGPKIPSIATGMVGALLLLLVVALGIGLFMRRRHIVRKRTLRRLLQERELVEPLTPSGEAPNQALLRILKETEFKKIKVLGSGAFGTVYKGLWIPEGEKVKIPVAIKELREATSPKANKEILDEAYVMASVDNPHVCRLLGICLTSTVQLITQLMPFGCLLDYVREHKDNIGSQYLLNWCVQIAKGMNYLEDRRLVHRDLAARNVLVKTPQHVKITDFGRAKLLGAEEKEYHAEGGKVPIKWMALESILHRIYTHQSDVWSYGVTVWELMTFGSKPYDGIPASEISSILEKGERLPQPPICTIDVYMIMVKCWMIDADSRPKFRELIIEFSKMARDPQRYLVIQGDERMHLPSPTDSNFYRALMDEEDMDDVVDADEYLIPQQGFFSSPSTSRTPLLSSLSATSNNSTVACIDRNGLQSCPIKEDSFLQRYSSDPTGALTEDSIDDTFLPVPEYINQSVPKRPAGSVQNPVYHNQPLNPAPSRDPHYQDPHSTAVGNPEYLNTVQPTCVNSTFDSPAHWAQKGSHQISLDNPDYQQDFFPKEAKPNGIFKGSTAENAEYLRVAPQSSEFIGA

SMILES	IC50 [1] [nM]	IC50 [2] [nM]	IC50 [3] [nM]	IC50 [4] [nM]	IC50 [5] [nM]
C=CC(=O)Nc1ccc(CC)c(Nc2ncc(Cl)c(Nc3ccccc3P(C)(C)=O)n2)c1	< 50	< 50	< 50	< 50	< 50
C=CC(=O)Nc1cc(Nc2ncc(Cl)c(Nc3ccccc3P(C)(C)=O)n2)c(OC)cc1N1CCC(N(CC)CC)C1 (stereo not given)	< 50	< 50	< 50	< 50	< 50
C=CC(=O)Nc1cc(Nc2ncc(Cl)c(Nc3ccccc3S(=O)(=O)C(C)C)n2)c(OC)cc1C#CCN(C)C	< 50	< 50	< 50	< 50	< 50
COc1cc(C)c(NC(=O)CCl)cc1Nc1ncc(Cl)c(Nc2ccccc2P(C)(C)=O)n1	< 50	< 50	< 50	< 50	< 50
C=CC(=O)Nc1cc(Nc2ncc(Cl)c(Nc3ccccc3P(C)(C)=O)n2)c(OC)cc1OCCCN1CCOCC1	< 50	< 50	101 to 250	101 to 250	101 to 250
C=CC(=O)Nc1cc(Nc2ncc(Cl)c(Nc3ccccc3P(C)(C)=O)n2)c(OC)cc1C#CCN1CCCC1	< 50	< 50	< 50	< 50	< 50
C=CC(=O)Nc1cc(Nc2ncc(Cl)c(Nc3ccccc3P(C)(C)=O)n2)c(OC)cc1C#CCN(C(C)C)C(C)C	< 50	< 50	< 50	< 50	< 50
C=CC(=O)Nc1cc(Nc2ncc(Cl)c(Nc3ccccc3P(C)(C)=O)n2)c(CC)cc1C#CCN(C)C	< 50	< 50	< 50	< 50	< 50
C=CC(=O)Nc1cc(Nc2ncc(Cl)c(Nc3ccccc3P(C)(C)=O)n2)c(OC)cc1O[C@@H]1CCCN(C)C1	< 50	< 50	< 50	< 50	< 50
C=CC(=O)Nc1cc(Nc2ncc(Cl)c(Nc3ccccc3P(C)(C)=O)n2)c(OC)cc1C#CCN(C)CCOC	< 50	< 50	< 50	< 50	< 50
COc1cc(F)c(NC(=O)CCl)cc1Nc1ncc(Cl)c(Nc2ccccc2P(C)(C)=O)n1	< 50	< 50	< 50	< 50	< 50
C=CC(=O)Nc1cc(Nc2ncc(Cl)c(Nc3ccccc3P(C)(C)=O)n2)c(OC)cc1OCCN1CCOCC1	< 50	< 50	< 50	101 to 250	50 to 100
COc1cc(N2CCOCC2)c(NC(=O)C#CCN(C)C)cc1Nc1ncc(Cl)c(Nc2ccccc2P(C)(C)=O)n1	< 50	< 50	< 50	< 50	< 50
C=CC(=O)Nc1cc(Nc2ncc(Cl)c(Nc3ccccc3P(C)(C)=O)n2)c(OC)cc1N1CCC(N2CCOCC2)C1 (stereo not given)	< 50	< 50	< 50	< 50	< 50
C=CC(=O)Nc1cc(Nc2ncc(Cl)c(Nc3ccccc3P(C)(C)=O)n2)c(OC)cc1N1CCC(N(C)C)C1 (stereo not given)	< 50	< 50	< 50	< 50	< 50
COc1cc(C)c(NC(=O)CCl)cc1Nc1ncc(C)c(Nc2ccccc2P(C)(C)=O)n1	< 50	< 50	< 50	< 50	< 50
C=CC(=O)Nc1cc(Nc2ncc(Cl)c(Nc3ccccc3P(C)(C)=O)n2)c(C)cc1C#CCN(C)C	< 50	< 50	< 50	< 50	< 50
C=CC(=O)Nc1cc(Nc2ncc(Cl)c(Nc3ccccc3P(C)(C)=O)n2)c(OC)cc1N(C)CCN(C)CCF	< 50	< 50	< 50	< 50	< 50
COCC#CC(=O)Nc1ccc(OC)c(Nc2ncc(Cl)c(Nc3ccccc3P(C)(C)=O)n2)c1	< 50	< 50	< 50	< 50	< 50
C=CC(=O)Nc1cc(Nc2ncc(Cl)c(Nc3ccccc3P(C)(C)=O)n2)c(OC)cc1C#CC(C)(C)N1CCCC1	< 50	< 50	50 to 100	< 50	< 50
C=CC(=O)Nc1cc(Nc2ncc(Cl)c(Nc3ccccc3P(C)(C)=O)n2)c(OC)cc1C#CC(C)(C)N	< 50	< 50	< 50	< 50	< 50
C=CC(=O)Nc1cc(Nc2ncc(Cl)c(Nc3ccccc3P(C)(C)=O)n2)c(OC)cc1N1CCC(N(C)C)CC1	< 50	< 50	< 50	101 to 250	< 50
COCC#CC(=O)Nc1cc(Nc2ncc(Cl)c(Nc3ccccc3P(C)(C)=O)n2)c(OC)cc1N1CCOCC1	< 50	< 50	< 50	< 50	< 50
C=CC(=O)Nc1ccc(OC)c(Nc2ncc(Cl)c(Nc3ccc(OCCN(C)C)cc3P(C)(C)=O)n2)c1	< 50	< 50	< 50	< 50	< 50

Next, values leading:

IC50 [1] [nM]	IC50 [2] [nM]	IC50 [3] [nM]	IC50 [4] [nM]	IC50 [5] [nM]	SMILES
< 50	< 50	< 50	50 to 100	< 50	CC#CC(=O)Nc1cc(Nc2ncc(Cl)c(Nc3ccccc3P(C)(C)=O)n2)c(OC)cc1N1CCC(N(C)C)C1 (stereo not given)
< 50	< 50	< 50	< 50	< 50	C=CC(=O)Nc1cc(Nc2ncc(Cl)c(Nc3ccccc3P(C)(C)=O)n2)c(OC)cc1C#CCN(C)CC
< 50	< 50	< 50	< 50	< 50	COc1ccc(NC(=O)C#CCN(C)C)cc1Nc1ncc(Cl)c(Nc2ccccc2P(C)(C)=O)n1
< 50	< 50	< 50	< 50	< 50	C=CC(=O)Nc1cc(Nc2ncc(Cl)c(Nc3ccccc3P(C)(C)=O)n2)c(OC)cc1N1CCCC(N(C)C)C1 (stereo not given)
< 50	< 50	< 50	101 to 250	< 50	C=C(Cl)C(=O)Nc1ccc(OC)c(Nc2ncc(Cl)c(Nc3ccccc3P(C)(C)=O)n2)c1
< 50	< 50	50 to 100	50 to 100	< 50	C=CC(=O)Nc1ccc(OC)c(Nc2ncc(OC)c(Nc3ccccc3P(C)(C)=O)n2)c1
< 50	< 50	< 50	101 to 250	50 to 100	C=CC(=O)Nc1cc(Nc2ncc(Cl)c(Nc3ccccc3P(C)(C)=O)n2)c(OC)cc1N1CCC(N2CCN(C)CC2)C1 (stereo not given)
< 50	< 50	< 50	< 50	< 50	C=CC(=O)Nc1cc(Nc2ncc(Cl)c(Nc3ccccc3P(C)(C)=O)n2)c(OC)cc1OC(CF)CN(CC)CC (stereo not given)
< 50	< 50	< 50	< 50	< 50	C=C(CN1CCN(C)CC1)C(=O)Nc1ccc(OC)c(Nc2ncc(Cl)c(Nc3ccccc3P(C)(C)=O)n2)c1
< 50	< 50	< 50	< 50	< 50	COc1ccc(NC(=O)/C=C/CN2CCCCC2)cc1Nc1ncc(Cl)c(Nc2ccccc2P(C)(C)=O)n1
< 50	< 50	< 50	< 50	< 50	C=CC(=O)Nc1cc(Nc2ncc(Cl)c(Nc3ccccc3P(C)(C)=O)n2)c(OC)cc1N1CCC(N2CCOCC2)CC1
< 50	< 50	< 50	101 to 250	50 to 100	C=CC(=O)Nc1cc(Nc2ncc(Cl)c(Nc3ccccc3P(C)(C)=O)n2)c(OC)cc1N1CCN(C2CCN(C)CC2)CC1
< 50	< 50	< 50	< 50	< 50	C=CC(=O)Nc1cc(Nc2ncc(Cl)c(Nc3ccccc3P(C)(C)=O)n2)c(OC)cc1C
< 50	< 50	< 50	< 50	< 50	C=CC(=O)Nc1cc(Nc2ncc(Cl)c(Nc3ccccc3P(C)(C)=O)n2)c(OC)cc1C#CC(C)(C)N(C)C
< 50	< 50	< 50	< 50	< 50	C=CC(=O)Nc1cc(Nc2ncc(Cl)c(Nc3ccccc3P(C)(C)=O)n2)c(OC)cc1N1CCC(N2CCC2)C1 (stereo not given)
< 50	< 50	< 50	< 50	< 50	C=CC(=O)Nc1cc(Nc2ncc(Cl)c(Nc3ccccc3P(C)(C)=O)n2)c(OC)cc1N1CCCN(C)CC1
< 50	< 50	< 50	< 50	< 50	C=C(CN1CCN(S(C)(=O)=O)CC1)C(=O)Nc1ccc(OC)c(Nc2ncc(Cl)c(Nc3ccccc3P(C)(C)=O)n2)c1
< 50	< 50	< 50	< 50	< 50	C=CC(=O)Nc1cc(Nc2ncc(Cl)c(Nc3ccccc3P(C)(C)=O)n2)c(OC)cc1N1CCC(N2CCCCC2)CC1
< 50	< 50	< 50	< 50	< 50	COCCC#CC(=O)Nc1cc(Nc2ncc(Cl)c(Nc3ccccc3P(C)(C)=O)n2)c(OC)cc1N1CCOCC1
< 50	< 50	< 50	< 50	< 50	C=CC(=O)Nc1cc(Nc2ncc(Cl)c(Nc3ccccc3P(C)(C)=O)n2)c(OC)cc1N1CC[C@@H](N(C)C)C1
